Source: ChEMBL document CHEMBL1806351, “Synthesis of C-1 homologues of pancratistatin and their preliminary biological evaluation” (Bioorg Med Chem Lett, 2011)

What was measured:
Format in all cases: functional, cell-based
DU-145 = assay: Antiproliferative activity against human DU145 cells assessed as viable cells after 48 hrs by MTT assay; conditions: DU-145, 48 h
MCF7 = assay: Antiproliferative activity against human MCF7 cells assessed as viable cells after 48 hrs by MTT assay; conditions: MCF7, 48 h
NCI-H460 = assay: Antiproliferative activity against human NCI-H460 cells assessed as viable cells after 48 hrs by MTT assay; conditions: NCI-H460, 48 h
BXPC-3 = assay: Antiproliferative activity against human BxPC3 cells assessed as viable cells after 48 hrs by MTT assay; conditions: BXPC-3, 48 h

| IC50 (DU-145) [nM] | IC50 (MCF7) [nM] | IC50 (NCI-H460) [nM] | IC50 (BXPC-3) [nM] | SMILES |
| --- | --- | --- | --- | --- |
| 720 | 1810 | 530 | 340 | CC(=O)OC[C@H]1[C@H](O)[C@@H](O)[C@@H](O)[C@@H]2NC(=O)c3cc4c(cc3[C@@H]12)OCO4 |
| 60 | 520 | 70 | 70 | CC(=O)OC[C@H]1[C@H](O)[C@@H](O)[C@@H](O)[C@@H]2NC(=O)c3c(cc4c(c3O)OCO4)[C@@H]12 |
| 90 | 240 | 90 | 220 | O=C1N[C@H]2[C@H](O)[C@H](O)[C@@H](O)[C@H](CO)[C@@H]2c2cc3c(c(O)c21)OCO3 |

| SMILES | IC50 (DU-145) [nM] | IC50 (MCF7) [nM] | IC50 (NCI-H460) [nM] | IC50 (BXPC-3) [nM] |
| --- | --- | --- | --- | --- |
| O=C1N[C@@H]2C(=C[C@H](O)[C@@H](O)[C@H]2O)c2cc3c(c(O)c21)OCO3 [NARCICLASINE] | 50 | 40 | 40 | 50 |
| O=C1N[C@H]2[C@H](O)[C@H](O)[C@@H](O)[C@H](CO)[C@@H]2c2cc3c(cc21)OCO3 | 1100 | 860 | 400 | 770 |
